{"source": "patent EP4810054A1", "about": "“NECROPTOSIS CONTROL AGENT” (The University of Tokyo, priority 2023, dated 2025)", "key": {"[1]": {"test_system": "male albino rats with experimentally induced sepsis", "details": "carnosine 25 mg/kg and 50 mg/kg for 30 days; cited from earlier work"}, "MSP-1 neurons [2]": {"test_system": "MSP-1 neurons", "assay": "P-MLKL immunostaining (necroptosis) of MSP-1 neurons treated with culture supernatant of TNF-α-treated astrocytes", "type": "cell-based, mouse", "description": "(§1) To obtain differentiated astrocytes, the above MSP-1 cells were harvested and cultured overnight in the MSP-1 proliferation medium on new dishes. The next day, for differentiation into astrocytes, the cells were cultured in serum-free DMEM/F12 medium containing N-2 supplement (R&D Systems), leukemia inhibitory factor (LIF, 10 ng/ml, Fujifilm Wako Pure Chemical Industries), and ciliary neurotrophic factor (CNTF, 10 ng/ml, Fujifilm Wako Pure Chemical Industries). For differentiation into neurons, the cells were cultured in serum-free DMEM/F12 medium containing only N-2 supplement. These media are referred to as MSP-1 differentiation media. Each medium was replaced with fresh medium every 2 days. For differentiation into astrocytes, in particular, on […], the cells were exposed to tumor necrosis factor-α (TNF-α, 100 ng/ml, Fujifilm Wako Pure Chemical Industries) for 24 hours. In the anserine treatment group, the cells were pretreated with L-anserine nitrate (Fujifilm Wako Pure Chemical Industries) for 2 hours prior to the exposure to TNF-α.\nThe harvested MSP-1 cells were cultured in the MSP-1 differentiation medium on poly-L-lysine/fibronectin-coated chamber glass (4-well, Watson) and differentiated into astrocytes. After the TNF-α treatment, the cells were fixed with 4% PFA for 10 minutes and washed with TBS for 10 minutes. Subsequently, the cells were blocked with 5% BSA diluted in 0.05% TBS-X at room temperature for 60 minutes, then incubated overnight at 4°C in a blocking solution containing primary antibodies. The primary antibodies used in this study were anti-GFAP (mouse, 1:1000, Sigma), anti-NeuN (mouse, 1:1000, Millipore), anti-NF-κB p65 (rabbit, 1:500, CST), and anti-P-MLKL (rabbit, 1:2000, Abcam). The cells were then washed three times with TBS for 5 minutes each, and incubated with secondary antibodies at room temperature for 2 hours. The secondary antibodies used in this study were anti-mouse IgG donkey Alexa 488 (1:1000, Molecular Probes) and anti-rabbit IgG donkey Alexa 568 (1:1000, Molecular Probes). After washing with TBS for 5 minutes, the sections were incubated with DAPI (1:10,000, Sigma) in TBS for 5 minutes, and then washed with TBS 2 times for 5 minutes each. The cells were visualized using a confocal microscope (FV3000-L4EN-TN21, Olympus).\nTo obtain differentiated astrocytes, the MSP-1 cells were harvested and cultured overnight in the MSP-1 proliferation medium on new dishes. The next day, the medium was replaced with serum-free DMEM/F12 medium containing N-2 supplement (R&D Systems), leukemia inhibitory factor (LIF, 10 ng/ml, Wako), and ciliary neurotrophic factor (CNTF, 10 ng/ml, Wako). This medium was referred to as astrocyte differentiation medium. The culture medium was replaced with fresh medium every 2 or 3 days. […]"}, "[3]": {"test_system": "MSP-1 cells differentiated into astrocytes", "assay": "RNA sequencing (DEG, GO/KEGG, GSEA) of TNF-α-treated MSP-1 astrocytes", "type": "cell-based, mouse", "description": "as §1\nThe MSP-1 cells differentiated into astrocytes were harvested by trypsin treatment, and total RNA was isolated using the RNeasy Mini Kit (Qiagen). Samples (10 ng input) were pretreated using the SMART-seq Stranded Kit (Takara, Japan). Sequencing was performed using Illumina NovaSeq 6000 (Illumina, USA).\nGene expression levels were assessed by using transcripts per million (TPM) data, and differentially expressed genes (DEGs) were identified using the DESeq2 package in the R environment. Genes with p-values less than 0.05 were considered DEGs. […] Gene set enrichment analysis (GSEA) was performed based on the TPM data.\nOn day 5, TNF-α (100 ng/ml) was added to the MSP-1 cells differentiated into astrocytes, and the cells were treated for 24 hours. In the TNF-α + anserine group, 10 µM anserine was added to the culture medium 2 hours prior to the TNF-α treatment. These cells were harvested, and RNA sequencing (RNA-seq) analysis was performed to examine the expressed genes. […] Necroptosis-promoting factors such as C3, Ccl2, Ccl7, and Cxcl1 increased after the TNF-α treatment and decreased in the TNF-α + anserine group.\n(§2) To obtain differentiated astrocytes, the MSP-1 cells were harvested and cultured overnight in the MSP-1 proliferation medium on new dishes. The next day, the medium was replaced with serum-free DMEM/F12 medium containing N-2 supplement (R&D Systems), leukemia inhibitory factor (LIF, 10 ng/ml, Wako), and ciliary neurotrophic factor (CNTF, 10 ng/ml, Wako). This medium was referred to as astrocyte differentiation medium. The culture medium was replaced with fresh medium every 2 or 3 days. On day 5, the cells were exposed to tumor necrosis factor-α (TNF-α, 100 ng/ml, Wako) for 24 hours. For anserine treatment group, the cells were pretreated with L-anserine (Toronto Research Chemicals) for 2 hours prior to the exposure to TNF-α. To obtain differentiated neurons, the culture medium for MSP-1 cells was replaced with the serum-free DMEM/F12 medium containing N-2 supplement. This medium was referred to as neuron differentiation medium. The culture medium was replaced with fresh medium every 2 days. On day 5, the cells were treated for 24 hours with the culture supernatant of the astrocytes induced from MSP-1 cells. Nec-1 and the C3aR antagonist (SB290157) were purchased from Selleck.\nTotal RNA was isolated from isolated astrocytes and astrocytes differentiated from MSP-1 cells using RNeasy Mini Kit (Qiagen). RNA samples in an amount of 1 ng (isolated astrocytes) or 10 ng (cultured astrocytes) were pretreated using the SMART-seq Stranded Kit (Takara Bio, Japan). Sequencing was performed using Illumina NovaSeq 6000 (Illumina, USA). Gene expression levels were evaluated using transcripts per million (TPM) data, and differentially expressed genes (DEGs) were identified using the DESeq2 package in the R environment. […]"}, "[4]": {"test_system": "C3, Ccl2, Cxcl1, and iNOS", "assay": "Real-time PCR of inflammatory factor genes in TNF-α-treated MSP-1 astrocytes", "type": "cell-based, mouse", "description": "as §2, with “On day 5, the cells were treated for 24 hours with the culture supernatant of the astrocytes induced from MSP-1 cells. Nec-1 and the C3aR antagonist (SB290157) were purchased from Selleck.” left out\nReverse transcription reactions for cDNA synthesis were performed on the isolated RNA samples (500 ng) using SuperScript™ III Reverse Transcriptase (Thermo Fisher) according to the manufacturer's instructions. […] Analysis was performed by the 2-ΔΔ-Ct method, and the results are expressed as fold changes. […]"}, "phospho-NF-κB": {"test_system": "phospho-NF-κB", "assay": "Immunostaining of phospho-NF-κB (P-P65) in TNF-α-treated MSP-1 astrocytes", "type": "cell-based, mouse", "description": "The harvested MSP-1 cells were cultured in the MSP-1 differentiation medium on poly-L-lysine/fibronectin-coated chamber glass (4-well, Watson) and differentiated into astrocytes. After the TNF-α treatment, the cells were fixed with 4% PFA for 10 minutes and washed with TBS for 10 minutes. Subsequently, the cells were blocked with 5% BSA diluted in 0.05% TBS-X at room temperature for 60 minutes, then incubated overnight at 4°C in a blocking solution containing primary antibodies. The primary antibodies used in this study were anti-GFAP (mouse, 1:1000, Sigma), anti-NeuN (mouse, 1:1000, Millipore), anti-NF-κB p65 (rabbit, 1:500, CST), and anti-P-MLKL (rabbit, 1:2000, Abcam). […]\n(§3) The cells were cultured on poly-L-lysine/fibronectin-coated chamber glass (4-well or 8-well, Watson) containing the respective MSP-1 differentiation media to induce differentiation into astrocytes or neurons. […] The images were analyzed and quantified using ImageJ.\n(§4) Microscopic images were analyzed using the ImageJ software. For AT8, P-RIPK1, and P-MLKL staining, staining intensity was calculated. […] For P-P65 staining, only the staining intensity in the nucleus was calculated, and the data are presented as relative intensity ± S.E.M. for each group. At least 100 cells for each group were analyzed from at least 10 random images."}, "MSP-1 neurons [5]": {"test_system": "MSP-1 neurons", "assay": "AT8 (tau phosphorylation) immunostaining of MSP-1 neurons treated with astrocyte culture medium", "type": "cell-based, mouse", "description": "(§5) To obtain differentiated astrocytes, the MSP-1 cells were harvested and cultured overnight in the MSP-1 proliferation medium on new dishes. The next day, the medium was replaced with serum-free DMEM/F12 medium containing N-2 supplement (R&D Systems), leukemia inhibitory factor (LIF, 10 ng/ml, Wako), and ciliary neurotrophic factor (CNTF, 10 ng/ml, Wako). This medium was referred to as astrocyte differentiation medium. The culture medium was replaced with fresh medium every 2 or 3 days. On day 5, the cells were exposed to tumor necrosis factor-α (TNF-α, 100 ng/ml, Wako) for 24 hours. For anserine treatment group, the cells were pretreated with L-anserine (Toronto Research Chemicals) for 2 hours prior to the exposure to TNF-α. […]\nas §3, §4"}, "MSP-1 neurons [6]": {"test_system": "MSP-1 neurons", "assay": "P-RIPK1 immunostaining of MSP-1 neurons treated with astrocyte culture medium", "type": "cell-based, mouse", "details": "MSP-1 neurons treated with anserine CM", "description": "as §5, §3, §4"}, "[7]": {"test_system": "phosphorylated IKK complex", "assay": "Phosphorylated IKK immunostaining in TNF-α-treated MSP-1 astrocytes", "type": "cell-based, mouse", "details": "MSP-1 astrocytes treated with TNF-α, addition of anserine; Fig. 6", "description": "as §2, with “Nec-1 and the C3aR antagonist (SB290157) were purchased from Selleck.” left out\nas §3"}, "[8]": {"assay": "Stability of anserine (temperature, storage in solution)", "type": "physicochemical"}, "[9]": {"details": "10 µM anserine 2 hours prior to TNF-α 100 ng/ml, 24 hours, versus TNF-α group"}, "[10]": {"details": "10 µM anserine added 2 hours prior to TNF-α (100 ng/ml, 24 hours), RNA-seq"}, "[11]": {"details": "Example 2, MSP-1 astrocytes pretreated with anserine before TNF-α, Fig. 5A"}}, "data": [{"smiles": "NCCC(=O)N[C@@H](Cc1cnc[nH]1)C(=O)O", "note": "[carnosine]", "values": [{"measurement": "IL-β, TNF-α, and MIF", "setting": "[1]", "value": "reduced"}, {"measurement": "expression of IκBα", "setting": "[1]", "value": "increased"}, {"measurement": "increased expression of p65 and p-IKKα/β (Ser 180/Ser 181)", "setting": "[1]", "value": "suppressed"}, {"measurement": "lipid peroxidation and other antioxidant enzymes", "setting": "[1]", "value": "significantly normalized"}]}, {"smiles": "CN1C(=O)C(Cc2c[nH]c3ccccc23)NC1=S", "note": "(centres unmarked) [Nec-1, necrostatin-1, reference compound]", "values": [{"measurement": "p-MLKL intensity", "setting": "MSP-1 neurons [2]; MSP-1 neurons treated with TNF CM plus Nec 1 (30 µM), Fig. 4", "value": "decreased significantly to the same level"}]}, {"smiles": "N=C(N)NCCCC(NC(=O)COCC(c1ccccc1)c1ccccc1)C(=O)O", "note": "(centres unmarked) [C3aR antagonist, reference compound]", "values": [{"measurement": "p-MLKL intensity", "setting": "MSP-1 neurons [2]; MSP-1 neurons treated with TNF CM plus C3aRA (10 µM), Fig. 4", "value": "decreased significantly"}]}, {"smiles": "Cn1cncc1C[C@H](NC(=O)CCN)C(=O)O", "note": "[anserine, (2S)-2-[(3-amino-1-oxopropyl)amino]-3-(3-methyl-4-imidazolyl)propanoic acid]", "values": [{"measurement": "Mfge8 (milk fat globule-EGF factor 8) expression (RNA-seq)", "setting": "[3]; [9]", "value": "increased"}, {"measurement": "Necroptosis-promoting factors such as C3, Ccl2, Ccl7, and Cxcl1 (expression, RNA-seq)", "setting": "[3]; [9]", "value": "decreased"}, {"measurement": "DEGs down-regulated, TNF-α + anserine vs TNF-α treatment group", "setting": "[3]; [10]", "value": 169}, {"measurement": "DEGs up-regulated, TNF-α + anserine vs TNF-α treatment group", "setting": "[3]; [10]", "value": 159}, {"measurement": "differentially expressed genes (DEGs) in the TNF-α + anserine treatment group in comparison with the TNF-α treatment group", "setting": "[3]; [10]", "value": 328}, {"measurement": "complement activation", "setting": "[3]; [11]", "value": "reduced"}, {"measurement": "expression of gene groups involved in necroptosis induction (chemokine signaling pathway, response to cytokine, immune response, TNF signaling-related genes), GO and KEGG analyses", "setting": "[3]; TNF-α + anserine group", "value": "significant decrease in expression"}, {"measurement": "expressions of inflammation-related genes, chemokine pathway, and complement activation pathway (GSEA)", "setting": "[3]; TNF-α + anserine group versus TNF-α group", "value": "decreased"}, {"measurement": "expressions of inflammatory factors such as C3", "setting": "[4]; [11]", "value": "decreased"}, {"measurement": "expressions of C3, Ccl2, Cxcl1, and iNOS (real-time PCR)", "setting": "[4]; anserine treatment group versus TNF-α treatment group, Fig. 2D", "value": "significantly decreased"}, {"measurement": "NF-κB activity", "setting": "phospho-NF-κB; [11]", "value": "reduced"}, {"measurement": "expression of phospho-NF-κB", "setting": "phospho-NF-κB; anserine treatment, TNF-α-induced MSP-1 astrocytes, Figs. 2B and 2C", "value": "reduced"}, {"measurement": "intensity of P-MLKL", "setting": "MSP-1 neurons [2]; MSP-1 neurons treated with anserine CM, Fig. 4", "value": "significant decrease"}, {"measurement": "necroptosis of MSP-1 neurons (expression of P-MLKL in necrosomes)", "setting": "MSP-1 neurons [2]; culture supernatant containing 10 mM anserine in addition to TNF-α, compared with sham group, Fig. 3", "value": "suppressed to a degree comparable to that observed with untreated culture supernatant (sham group)"}, {"measurement": "intensity of AT8", "setting": "MSP-1 neurons [5]; MSP-1 neurons treated with anserine CM", "value": "significant decrease"}, {"measurement": "tau-phosphorylation (p-tau expression, AT-8 staining)", "setting": "MSP-1 neurons [5]; MSP-1 neurons treated with culture medium from TNF-α + anserine group (anserine CM), Fig. 4", "value": "did not exhibit such p-tau expression"}, {"measurement": "intensity of P-RIPK1", "setting": "MSP-1 neurons [6]", "value": "significant decrease"}, {"measurement": "expression of the phosphorylated IKK complex", "setting": "[7]", "value": "reduced"}, {"measurement": "stable storage in solution (duration)", "setting": "[8]; in solution", "value": "at least two years and nine months"}, {"measurement": "stability at room temperature and under conditions of 180°C or lower", "setting": "[8]; room temperature, 180°C or lower", "value": "sufficiently stable"}]}]}
